Assay results reported in patent US7528106B2, “Compositions and methods for treatment of neovascular diseases” (The Scripps Research Institute, priority 2004, dated 2009).
Where “and” joins values, the source holds several entries; their conditions need not be identical. Identical values can stand only once.

System: deep retinal vascular network formation in neonatal Balb/C mice
Assay: Neonatal mouse retinal angiogenesis model
Format: in vivo
Source text: Description of the Model. Immediately after birth (postnatal day zero; “P0”), retinal vasculature is virtually absent in the mouse. By four weeks after birth (P28) the retina has attained an adult pattern of retinal vessels coincident with the onset of vision. Physiological neovascularization of the retina occurs during this period via a stereotypical, biphasic developmental pattern of angiogenesis. During the primary phase of retinal vascular development, spoke-like peripapillary vessels grow radially from the central retinal artery and vein, becoming progressively interconnected by a capillary plexus that forms between them. This “inner retinal plexus” grows in area, volume and complexity, centrifugally, as a monolayer within the nerve fiber layer during the first seven to ten days following birth.
The second phase of retinal vessel formation begins between postnatal days 7 (P7) and 10 (P10) when collateral branches sprout from capillaries of the superficial plexus and penetrate into the retina where their tips branch and anastamose laterally to form a planar “deep vascular plexus”. While the deep vascular plexus is in place by P14, it undergoes extensive remodeling from P14 to P21. It is of interest to note that the formation of these vascular networks in the neonatal mouse are strikingly similar to the events occurring in the third trimester human fetus.
Advantages and Quantification of the Model. The reproducibility of the murine retinal development process and its easy accessibility in neonatal animals provide an opportunity to assess the efficacy of antiangiogenic compounds in a physiologically relevant model of angiogenesis. Additional advantages of the neonatal mouse model are the ability to qualitatively and quantitatively evaluate the angiostatic effect of putative antagonists of angiogenesis. Angiostatic activity was evaluated based upon the degree of angiogenesis in the deep, outer retinal vascular layer (secondary layer) that develops between P8 and P12. The appearance of the inner blood vessel network (primary layer) was evaluated for normal development and signs of toxicity.
Preparation of Compositions. Peptidomimetic integrin signaling inhibitor Compound (1) is solubilized in PBS at a concentration of about 20 mg/ml in PBS (1× concentration). T2-TrpRS is solubilized in PBS at a concentration of about 0.5 mg/ml (1× concentration). VEGF aptamer (pegaptanib sodium; Compound (2)) is solubilized in PBS at a concentration of about 2 mg/ml (1× concentration) to achieve an injection of approximately 1 μg/eye at 1× concentration. For all combination assays the compounds were prepared at 2 or 3 times the 1× concentration of each material and then combined to produce a final solution containing each individual compound at the same concentration as was used alone (e.g., 1×, 0.5×, 0.25× or 0.1×, as the case may be). For all assays, a single injection of 0.5 μl of PBS solutions of the drugs was administered intravitreally regardless of the number of compounds being injected. As used herein, the term “0.1×” refers to one tenth of the 1× concentration of a given material, “0.25×” refers to one quarter of the 1× concentration of a given material, “0.5×” refers to one half of the 1× concentration of a given material, and so forth for similar designations.
An in vivo angiogenesis assay in the neonatal mouse (Balb/C, The Jackson Laboratory, Bar Harbor, Me.) was used to evaluate the angiostatic activity of integrin signaling inhibitor Compound (1), T2-TrpRS, and VEGF aptamer Compound (2). Intravitreous injection and retina isolation was performed with a dissecting microscope (SMZ 645, Nikon, Japan). […] The samples (0.5 μl) were injected with a Hamilton syringe fitted with a 32-gauge needle (Hamilton Company, Reno, Nev.). The injection was made between the equator and the corneal limbus. During injection, the location of the needle tip was monitored by direct visualization to determine that it was in the vitreal cavity. […]

[1] = Ex 1, 0.1× (1×=20 mg/ml), intravitreal P8, read P12
[2] = Ex 5, 0.5× (1×=20 mg/ml), intravitreal P4, read P12
[3] = Ex 6, 0.5× (1×=20 mg/ml), intravitreal P4, read P12
[4] = Ex 7, 0.5× (1×=20 mg/ml), intravitreal P4, read P12
[5] = Ex 9, 1× of each (Comp. (1) 20, Comp. (2) 2, T2-TrpRS 0.5 mg/ml), intravitreal P4, read P12
[6] = Table 12, composite data from the Examples, 1×-2×
[7] = Table 13A, 5-10 μg per eye, intravitreal P7, read P12
[8] = Table 13C low dosing, 0.1x (integrin ant. 1.0 μg, VEGF apt. 0.20 μg, T2-TrpRS 0.025 μg)

Q: What does the source list for `CC(C)(C)COC(=O)N[C@@H](Cc1ccc2c(c1)NC(=O)[C@@H](CCC(=O)Nc1ncc[nH]1)O2)C(=O)[O-].[Na+]` [Compound (1)]?
A: inhibition of neovascularization (0.1× concentrations (1 μg/eye integrin antagonist, 0.2 μg/eye VEGF aptamer, 0.025 μg/eye T2-TrpRS)): negligible; % of eyes with 0-10% inhibition of deep vascular layer [1]: 40%; % of eyes with 10-25% inhibition of deep vascular layer [1]: 0.5%; % of eyes with 25-50% inhibition of deep vascular layer [1]: 20%; % of eyes with 50-75% inhibition of deep vascular layer [1]: 20%; % of eyes with 75-100% inhibition of deep vascular layer [1]: 20%; % of eyes with 0-10% inhibition of deep vascular layer [2]: 50%; % of eyes with 10-25% inhibition of deep vascular layer [2]: 33.3%; % of eyes with 25-50% inhibition of deep vascular layer [2]: 16.7%; % of eyes with 50-75% inhibition of deep vascular layer [2]: 0%; % of eyes with 75-100% inhibition of deep vascular layer [2]: 0%; % of eyes with 100% inhibition of deep vascular layer [2]: 0%; % of eyes with >95% inhibition of deep vascular layer [2]: 0%; % of eyes with 0-10% inhibition of deep vascular layer [3]: 50%; % of eyes with 10-25% inhibition of deep vascular layer [3]: 12.5%; % of eyes with 25-50% inhibition of deep vascular layer [3]: 12.5%; % of eyes with 50-75% inhibition of deep vascular layer [3]: 12.5%; % of eyes with 75-100% inhibition of deep vascular layer [3]: 12.5%; % of eyes with 100% inhibition of deep vascular layer [3]: 0%; % of eyes with >95% inhibition of deep vascular layer [3]: 0%; % of eyes with 0-10% inhibition of deep vascular layer [4]: 12.5%; % of eyes with 10-25% inhibition of deep vascular layer [4]: 25%; % of eyes with 25-50% inhibition of deep vascular layer [4]: 12.5%; % of eyes with 50-75% inhibition of deep vascular layer [4]: 12.5%; % of eyes with 75-100% inhibition of deep vascular layer [4]: 37.5%; % of eyes with 100% inhibition of deep vascular layer [4]: 0%; % of eyes with >95% inhibition of deep vascular layer [4]: 0%; % of eyes with 0-10% inhibition of deep vascular layer [5]: 25%; % of eyes with 10-25% inhibition of deep vascular layer [5]: 12.5%; % of eyes with 25-50% inhibition of deep vascular layer [5]: 12.5%; % of eyes with 50-75% inhibition of deep vascular layer [5]: 37.5%; % of eyes with 75-100% inhibition of deep vascular layer [5]: 12.5%; % of eyes with 100% inhibition of deep vascular layer [5]: 0%; % of eyes with >95% inhibition of deep vascular layer [5]: 0%; % of mice with 0-10% inhibition of deep vascular layer [6]: 33.3%; % of mice with 10-25% inhibition of deep vascular layer [6]: 20%; % of mice with 25-50% inhibition of deep vascular layer [6]: 13.3%; % of mice with 50-75% inhibition of deep vascular layer [6]: 16.7%; % of mice with 75-100% inhibition of deep vascular layer [6]: 16.7%; % of mice with 100% inhibition of deep vascular layer [6]: 0%; % of mice with >95% inhibition of deep vascular layer [6]: 0%; Percentage of retinas with 0-10% neovascular inhibition [7]: 33.3%; Percentage of retinas with 10-25% neovascular inhibition [7]: 20.0%; Percentage of retinas with 25-50% neovascular inhibition [7]: 13.3%; Percentage of retinas with 50-75% neovascular inhibition [7]: 16.7%; Percentage of retinas with 100% neovascular inhibition [7]: 0.0%; Percentage of retinas with >75% neovascular inhibition [7]: 16.7%; Percentage of retinas with >90% neovascular inhibition [7]: 0.0%; Percentage of retinas with 0-10% neovascular inhibition [8]: 90%; Percentage of retinas with 10-25% neovascular inhibition [8]: 10%; Percentage of retinas with 25-50% neovascular inhibition [8]: 0%; Percentage of retinas with 50-75% neovascular inhibition [8]: 0%; Percentage of retinas with 100% neovascular inhibition [8]: 0%; Percentage of retinas with >75% neovascular inhibition [8]: 0%; Percentage of retinas with >90% neovascular inhibition [8]: 0%; optimal effective dose (dosing experiments, bell-shaped efficacy curve, listed as integrin antagonist): 5-10 μg per eye and 10-20 nmoles per eye; retinas that exhibited over 75% inhibition (monotherapy at optimal dose): 17%; retinas unaffected by injection (monotherapy at the maximum individual dose): around 35%
